Assay [1] relates to naive OVA-specific CD4+ T cells. In words: In vitro co-culture of pDC subsets with naive OVA-specific CD4+ T cells, Foxp3 and IL-10 by flow cytometry. The format is cell-based, mouse. As to the method:
(a) Flow cytometry of intracellular expression of Foxp3 in CD4^+ T cells cultured with CD8α^− CD8β^− pDCs, CD8α^+ CD8β^− or CD8α^+ CD8β^+ pDCs. Sorted CD8α^− CD8β^−, CD8α^+ CD8β^− or CD8α^+ CD8β^+ pDCs were preincubated 12 hours with either medium or Galectin-3 (10 μg/ml). Cells were then washed and co-cultured with OVA-specific CD4^+ T cells at a 1:10 ratio (pDC:T CD4^+) for 5 days in presence of either OVA323-339 (1 μg/ml) and/or TGF-β (1 ng/ml) as indicated. Cells were subsequently stained with CD3, CD4 and CD25 antibodies fixed, permeabilized and stained with an anti-Foxp3 antibody before flow cytometry analysis. […]
(a) Gene expression of Aldhla1 Aldhla2, and Aldhla3 was assessed by real-time PCR in CD8α^−β^−, CD8α^+β^−, and CD8α^+β^+ pDCs from peripheral lymph nodes or in CD103^− and CD103^+ DCs from mesenteric lymph nodes of Fms-like tyrosine kinase 3-ligand (Flt3-L)-treated mice. […] P-values were calculated with Student's t-test. *P-value <0.05 (CD8α^+β^− pDC and CD8α^+β^+ pDC compared to CD8α^−β^−). ^#P-value <0.05 (CD103^+ cDC compared to CD103^− cDC). […] Cells were subsequently stained with anti-CD11c, anti-mPDCA1, anti-CD8α, and CD8αβ antibodies, and analyzed by flow cytometry to detect RALDH activity. […] Foxp3 expression was analyzed among CD3^+ CD4^+ CD25^+ cells; dot plots are representative of three independent experiments. […]
For orientation: A flow cytometer gives signals particle by particle.

In the next assay the test system is pDCs. In words: TLR7/TLR9 stimulation of pDC subsets (R848, CpG): co-stimulatory molecules, CD8 expression, IFN-α and IL-10 ELISA. The format is cell-based, mouse. As to conditions: R848 10 μg/ml or CpG 10 μM, 18 hours. As to the method: (a) Plasmacytoid DCs were isolated by magnetic separation from lymph nodes of Flt3L-treated mice. The surface expression of the costimulation molecules CD80 and CD86 was assessed on CD8α^− CD8β^− pDCs, CD8α^+ CD8β^− pDCs and CD8α^+ CD8β^+ pDCs subtypes after 18 hours of stimulation with R848 (10 μg/ml) or CpG (10 μM). Data are representative of three similar experiments. Shaded histograms represent isotype control antibodies; dashed lines, specific staining of untreated cells; solid black lines, specific staining of CpG treated cells and solid grey lines, specific staining of R848 treated cells. […] Cells were then washed and stained with CD8α and CD8β^− antibodies, APC fluorescence was analyzed by flow cytometry in the CD8α^− CD8β^− pDCs, CD8α^+ CD8β^− pDCs or CD8α^+ CD8β^+ pDCs subpopulations. […] Data are average (mean fluorescence intensity (MFI) at 37° C.)−(MFI at 4° C.)±SEM of three separate experiments. […] The amount of radioactivity related to the number of cells was evaluated in a scintillation counter. […]
The main function of DCs is to prime naïve T cells by presenting antigen and providing additional signals through co-stimulatory molecules and production of cytokines. To address whether the populations of pDCs described herein differ in these functions, we stimulated them with TLR ligands and assessed the expression of co-stimulatory molecules along with the cytokine production. […]

The test system of the next assay is DCs. Description: In vivo expansion of DCs by Flt3L-expressing tumor cells. Details: species or system mouse. As to conditions: Flt3L treatment of BALB/c mice. As to the method:
To test whether an in vivo expansion of the population of DCs affects the expression of CD8α or CD8β at the surface of pDCs, tumor cells expressing Flt3L were transferred into BALB/c mice. Flt3L acts on hematopoietic stem cells and controls their differentiation into DCs, this treatment expands the population of DCs by 15 to 20 fold after 14 days without activating the cells. […] The expression of CD8α and CD8β was assessed simultaneously on pDCs (CD11c^+ BST2^+ cells) and on conventional DCs (cDCs, CD11c^+ BST2^− cells). At the surface of cDCs, only CD8α expression was detected (FIG. 2a). […] Accordingly, with the surface phenotype, CD8α gene expression was detected in CD8α^+β^− pDCs while both CD8α and CD8β genes were overexpressed in the CD8α^+β^+ subset (FIG. 2b). As expected CD8β gene expression was never detected in cDCs (FIG. 2b). […] Our data from B2m knockout mice confirmed the presence of CD8α or CD8β pDC repertoire, similar to the level detected in the wild type mice (FIG. 2c). To further assess the expression of CD8α or CD8β at mRNA level, we performed real time quantitative PCR on the sorted subpopulation of pDCs from B2m knockout mice and confirmed the results obtained in FIG. 2c at the mRNA expression level (FIG. 2d). […]

In the case of `CN1c2cc3c(cc2N=C(c2ccc(C(=O)O)cc2)c2ccc4ccccc4c21)C(C)(C)CCC3(C)C` [LE540], the “effect of RALDH inhibitor on conversion of naive CD4+ T cells by CD8α+β+ and CD8α+β− pDCs” value in assay [1] (LE540 1 μM with TGF-β) is given as “completely blocked the conversion of naïve CD4^+ T cells”.
Turning to `CCOCc1nc2c(N)nc3ccccc3c2n1CC(C)(C)O` [R848], the “expression of CD8α and CD8β on pDCs following TLR stimulation” value in the assay on pDCs was “the expression of CD8α and CD8β decreases”.
For Galectin-3, in assay [1] (Galectin-3 10 μg/ml, 12 hours pre-incubation, TGF-β present), the “effect of Galectin-3 pre-incubation of pDCs on conversion of naive CD4+ T cells into Foxp3-expressing cells” value is recorded as “boost the capacity of pDCs to convert naïve CD4^+ T cells into Foxp3-expressing cells”.

B1: Flt3L: delivered by tumor cells expressing Flt3L; controls differentiation of hematopoietic stem cells into DCs (protein, UniProt P49771 27-235, looked up)
Fms-related tyrosine kinase 3 …: TQDCSFQHSPISSDFAVKIRELSDYLLQDYPVTVASNLQDEELCGGLWRLVLAQRWMERLKTVAGSKMQGLLERVNTEIHFVTKCAFQPPPSCLRFVQTNISRLLQETSEQLVALKPWITRQNFSRCLELQCQPDSSTLPPPWSPRPLEATAPTAPQPPLLLLLLLPVGLLLLAAAWCLHWQRTRRRTPRPGEQVPPVPSPQDLLLVEH
Take B1: the “level of expression of CD8α and CD8β on pDCs” value in the assay with DCs is “does not significantly affect”.
